Experimental findings from EP0426075A1, “Benzylpyrrolidine derivatives as dopamine agonists” (SYNTEX (U.S.A.) INC., priority 1989, dated 1991) are described below.

The subject of one assay is DA2 receptor. Put plainly: Goldberg in situ femoral arterial preparation (DA2 assay), intra-arterial injection. It counts as in vivo, dog. To be noted: for ED50: blood flow increase, i.a. bolus into femoral artery, anesthetized dog; for Relative Efficacy to DA2 Standard: optimal response of test compound divided by optimal response of DPDA; for Relative Potency to DA2 Standard: standard (DPDA) ED50 divided by test compound ED50. The protocol:
(§1) The compounds were subsequently tested following intra-arterial administration in an in situ renal and femoral arterial preparation in the dog, as developed by L.I. Goldberg, to test for DA1 and DA2 dopamine activity, respectively. Details of the methodology are provided in the European J. Pharmacol. 89 :137, 1983, as well as in Hypertension 6 :1-25, 1984.
(§2) The compounds of this invention were tested following intra-arterial administration in an in situ renal and femoral arterial preparation in the dog, as developed by L.I. Goldberg, to test for DA1 and DA2 dopamine activity, respectively. Details of the methodology are provided in the European J. Pharmacol. , 89 :137, 1983, as well as in Hypertension , 6 :1-25, 1984. J. L. McNay, L. I. Goldberg JPET 151 :23-31, 1966.
(§3) The compounds were injected directly into the renal or femoral artery for analysis of DA, or DA2 activity, respectively. […] The compounds were tested for relative activity in comparison to the standard DA, agonist, dopamine or the standard DA2 agonist, DPDA. Specific DA, or DA2 activity of the tested compound was verified by Sch 23390 or domperidone blockade.
(§4) Adult mongrel dogs of either sex (12-20 kg) were anesthetized with pentobarbital sodium (33 mg/kg, i.v.). The animals were intubated and ventilated with room air using a Harvard respirator.
(§5) The compounds of this invention were tested following intra-arterial administration in an in situ renal and femoral arterial preparation in the dog, as developed by L.I. Goldberg, to test for DA1 and DA2 dopamine activity, respectively. Details of the methodology are provided in the European J. Pharmacol. , 89 :137, 1983, as well as in Hypertension , 6 :1-25, 1984. J. L. McNay, L. I. Goldberg JPET 151 :23-31, 1966
(§6) The compounds were injected directly into the renal or femoral artery for analysis of DA1 or DA2 activity, respectively. […] The compounds were tested for relative activity in comparison to the standard DA1 agonist, dopamine or the standard DA2 agonist, DPDA. Specific DA, or DA2 activity of the tested compound was verified by Sch 23390 or domperidone blockade.
The thoracic aorta was catheterized with a Millar micro-tip (size 5F) transducer via the right carotid artery for blood pressure monitoring. The right external jugular vein was cannulated with PE-160 tubing for supplemental pentobarbital administration. The left femoral artery was isolated and an electromagnetic flowprobe of the appropriate size (8-11 mm circ.) was placed around the artery and connected to a Caroline Medical electromagnetic flowmeter. Surface ECG leads were placed subcutaneously on the chest and limbs to monitor heart rate. A 25 gauge 3/4" needle bent 90` , 4 mm from the tip, was placed in the femoral artery proximal to the probe and connected to an infusion pump delivering saline at a constant rate of 1 ml/min. Following a saline and bradykinin challenge (0.02 to 0.04 nmoles, in 0.2 ml saline, i.a.), a dose response curve for DPDA was generated by injecting 4-fold increasing doses i.a. ranging from 3 to 48 nmoles in 0.2 ml saline. Test compounds were injected similarly in 4-fold increasing doses up to 3000 nmoles. Compounds were then repeated at their optimal dose following domperidone pretreatment (10-40 Ilg/kg, iv).
Efficacy ratios were determined by division of the optimal response of the test compound by the optimal response of the standard agent. The optimal dose of compound was defined as that which produced a maximum increase in blood flow before causing a change in systemic blood pressure. ED50 values were derived by regression analysis from individually generated dose response curves. Potency ratios were the quotients calculated from the division of the standard agent EDso by the ED50 of the test compound. […] If the inhibition of the test compound was similar to that of dopamine or DPDA, the compound was considered to be a DA, or DA2 agonist, respectively.

The test system of another assay is DA1 receptor. Put plainly: Goldberg in situ renal arterial preparation (renal DA1 assay), intra-arterial injection. It counts as in vivo, dog. To be noted: for Relative Efficacy to DA1 Standard: optimal response of test compound divided by optimal response of dopamine; for ED50: renal blood flow increase, i.a. bolus into renal artery, anesthetized dog; for Relative Potency to DA1 Standard: standard (dopamine) ED50 divided by test compound ED50. How it is done:
as §1, §2, §3, §4, §5, §6
The abdominal aorta was catheterized with a Millar micro-tip (size: 5F) transducer via the right femoral artery for blood pressure monitoring. The right femoral vein was cannulated with PE-160 tubing for iv saline infusion, as well as supplemental pentobarbital administration. The left renal artery was isolated through a lateral abdominal incision. An electromagnetic flowprobe of the appropriate size (8-11 mm circ.) was placed around the artery and connected to a Carolina Medical electromagnetic flowmeter. Surface ECG leads were placed subcutaneously on the chest and limbs to monitor heart rate. A 25 gauge 3/4" needle bent 90°, 4 mm from the tip, was placed in the renal artery proximal to the probe and connected to an infusion pump delivering saline at a constant rate of 1 ml/min. Following a saline and 1µg norepinephrine (NE) challenge, both given in an injection volume of 0.2 ml, the animal was treated with a phenoxybenzamine, 0.5 mg/kg/min i.a., infusion for a duration of 10-20 minutes as necessary to achieve a complete blockade of the NE challenge. Blood pressure was maintained by supplemental saline infusion (10-20 ml/kg, iv). Bradykinin, a standard for nonspecific vasodilation, was given at 0.60 nmole doses, in 0.2 ml saline, i.a., prior to generating a dose response curve for dopamine in which 4-fold increasing doses, ranging from 3 to 48 nmoles, were injected i.a. in 0.2 ml of saline (i.a. bolus). Test compounds were injected similarly in 4-fold increasing doses up to a maximum of 3000 nmoles. Compounds were then repeated at their optimal dose following Sch 23390 pretreatment (0.05 - 0.10 mg/kg, iv).
Efficacy ratios were determined by division of the optimal response of the test compound by the optimal response of the standard agent.

The structures appear in SMILES notation.

For the compound `Br.Br.CCCN(CCCCCCN1CCC[C@@H]1Cc1ccc(O)c(O)c1)CCc1cccc(O)c1` [Test Compound 2, (R)-2-(3,4-dihydroxybenzyl)-1-[6-(N-(3-hydroxyphenethyl)-N-propylamino)hexyl]pyrrolidine dihydrobromide], in the assay with DA2 receptor, the “ED50” value amounted to 0.04 nmol, the “Relative Efficacy to DA2 Standard” value stood at 1.26 and the “Relative Potency to DA2 Standard” value stood at 216.00. In the assay with DA1 receptor, the “Relative Efficacy to DA1 Standard” value was determined as 0.93, the “ED50” value is 0.34 nmol and the “Relative Potency to DA1 Standard” value was 17.47.
With `Br.Br.CCCN(CCCCCCN1CCC[C@@H]1Cc1ccc(O)c(O)c1)CCc1ccc(O)cc1` [Test Compound 1, (R)-2-(3,4-dihydroxybenzyl)-1-[6-(N-(4-hydroxyphenethyl)-N-propylamino)hexyl]pyrrolidine dihydrobromide], in the assay with DA2 receptor, the “ED50” value was 0.02 nmol, the “Relative Efficacy to DA2 Standard” value is on record as 1.29 and the “Relative Potency to DA2 Standard” value amounted to 327.50. Also, in the assay with DA1 receptor, the “Relative Efficacy to DA1 Standard” value turned out to be 1.10, the “ED50” value came out at 0.87 nmol and the “Relative Potency to DA1 Standard” value is given as 6.44.
